Key:
SH-SY5Y cells = test: Cell death assay in SH-SY5Y cells with or without Pael receptor overexpression; assay type: cell-based
Description: Descriptions concerning expression plasmids for Parkin, Parkin variants, UBCH6, UBCH7 and Ubiquitin are as described in Imai, Y. et al. (2000) J Biol Chem 275, 35661-35664. The full-length complementary strand DNAs (cDNAs) of human and mouse Pael receptors, human ETBR-LP-2, human UBC6, UBC7 and E2-25K were obtained by reverse transcription (RT)-PCR. The full-length cDNA of ETA-R and that of ETB-R were obtained from the RIKEN Gene Bank. Recombinant GST-Parkin, GST-A Ex 4, 6×His tagged UBC6 and UBC7 were produced in the Escherichia coli BL21 strain (DE3) pLysS (Novagen). Site-directed mutagenesis to the active center cysteine of UBC6 and UBC7 was performed by the PCR method. UBC6 of a putative membrane insertion site-deficient type (UBC6ΔC; 1 to 288 amino residues) is expressed better than wild type UBC6 in Escherichia coli and has high enzyme activity, so that UBC6ΔC was subjected to in vitro ubiquitination assay. Anti-Myc (9E10), anti-HA (Y-11), anti-Ubiquitin (FL-76), anti-BiP (N-20) and anti-actin (C-2) antibodies were purchased from Santa Cruz Biotech. Anti-FLAG (M2), anti-HA (3F10), anti-Ubiquitin (1B3), anti-GluR4 (AB1508) and anti-NSE (BBS/NC/VI-H14) were purchased from Sigma, Roche Diagnostics, MBL (Nagoya, Japan), Chemicon and Dako, respectively. Anti-UCH-L1 antibodies were provided by Dr. Keiji WADA (National Center of Neurology and Psychiatry, Japan). 293T cells derived from a human fetal kidney and SH-SY5Y cells derived from neuroblastoma were subjected to gene transfer, immunoprecipitation, Western blot, immunocytochemistry and cell death assay according to the method as described in Imai et al., 2000.
To confirm this prediction, the effect of a proteasome inhibitor and that of a UPR inducer on cell death resulting from the overexpression of Pael receptors were examined (FIG. 11). Vectors (−) having no gene inserted therein or expression plasmids for Pael receptors (+) were gene-transferred with expression plasmids for enhanced green fluorescent proteins (EGFP) to SH-SY5Y cells. The cells were then cultured in the presence (Lc, 20 μM) or the absence (non) of lactacysin, and the presence of tunicamycin (Tm, 5 μg/ml) or 2-ME (2 mM) for 16 hours. Cell death was counted by the method described in Imai, Y. et al. (2000) J Biol Chem 275, 35661-35664. In FIG. 11, the line of error indicates the standard deviation (S.D.) calculated from three experiments.

Pael receptor [1] = test: Western blotting of 1% Triton X-100-soluble and -insoluble fractions of Pael receptor-transfected SH-SY5Y cells; assay type: cell-based, human; details: 16 hours, lactacystin 10 μM, tunicamycin 1 μg/ml, 2-ME 1 mM; for Pael receptors in the insoluble fraction: 1% Triton X-100-insoluble fraction; for expression of BiP (GRP78) and of endogenous Parkin in the soluble fraction: cells over-expressing Pael receptors
Method: Cells were suspended in a cytolysis buffer (consisting of 20 mM HEPES, pH 7.4, 120 mM NaCl, 5 mM EDTA, 10% glycerol, 1% Triton X-100 and Complete Protease Inhibitors [Roche Diagnostics]) and then lysed at 4° C. for 30 minutes. The forebrain cortex of the human cerebrum was suspended in a cytolysis buffer, and then crushed using a downs homogenizer. The sample was fractionated into surfactant-soluble and insoluble fractions, and then immuno-precipitated according to a modified method of Ward et al. (1995) Cell 83, 121-127. Specifically, the suspension was fractionated by centrifugation at 15,000×g for 30 minutes. The supernatant derived from 1% Triton X-100 soluble fraction was directly subjected to immunoprecipitation. The insoluble pellet fraction was washed 4 times in an ice-cooled cytolysis buffer. Subsequently, the fraction was subjected to lysis at 60° C. for 1 hour in a cytolysis buffer supplemented with sodium lauryl sulfate (SDS) with a final concentration of 1%. A cytolysis buffer containing 10 mM MgCl2 and 25 μg/ml DNase I and having a volume 10 times greater than that of the solution was added. The solution was allowed to react at 37° C. for 10 minutes. After centrifugation at 15,000×g for 30 minutes, the supernatant derived from 1% Triton X-100 insoluble fraction was subjected to immunoprecipitation using various antibodies and protein G-coupled or protein A/G (50/50%)-coupled Sepharose beads (Amersham-Pharmacia). The immunoprecipitate was washed 4 times in a cytolysis buffer containing no complete protease inhibitors. 1% Triton X-100-soluble and -insoluble fractions of total cell extract, or immunoprecipitates derived from the 1% Triton X-100-soluble fraction and -insoluble fraction were subjected to Western blot analysis using ECL detection reagent (Amersham-Pharmacia). Proteins were quantified using Coomassie protein assay reagent (Pierce).
Vectors (−) having no gene inserted therein or expression plasmids (+) for Pael receptors were gene-transferred to SH-SY5Y cells, and then the cells were cultured for 20 hours. Next, in the presence or the absence of lactacystin (10 μM) and in the presence of tunicamycin (1 μg/ml) or 2-mercaptoethanol (2-ME; 1 mM), the cells were cultured for 16 hours. The cells were lysed in a buffer containing 1% Triton X-100, and then fractionated by the method described in Ward et al., 1995 Cell 83, 121-127. Insoluble Pael receptors were immunoprecipitated as described above from the insoluble fraction of the same sample, and then analyzed using anti-Ub polyclonal antibodies (FIG. 10). 1% Triton-X100-insoluble or -soluble fraction was obtained under various conditions, including cases wherein Pael receptor cDNA had not been transfected (−) or transfected (+) to SH-SY5Y cells, and then subjected to Western blotting. Even in an untreated state, Pael receptors were already present in the insoluble fraction at a level equivalent to that of the soluble fraction.

Pael receptor [2] = test: Immunocytochemistry, intracellular distribution of over-expressed Pael receptors in SH-SY5Y cells; assay type: cell-based, human; details: SH-SY5Y cells transfected with Pael receptor plasmids, treated for 6 hours
Method: For immunocytochemistry, a human Pael receptor expression vector (1 μg per sample) was gene-transferred, or was gene-transferred in combination with 0.3 μg of red fluorescent protein expression vector (pDsRed1-N1, Clontech) having endoplasmic reticulum localization sequence of calreticulin or Golgi body localization sequence of human β1, 4-galactosyltransferase into SH-SY5Y cells inoculated on a 8-well chamber slide. After 20 hours of culturing, the cells were exposed to 20 μM lactacystin for 16 hours. After washed in phosphate buffered saline, the cells were fixed with 0.2% glutaraldehyde and 2% formaldehyde. Subsequently, the cells were stained with anti-human Pael receptor antibodies or anti-BiP antibodies. For immunohistochemistry, the carboxyl terminal site (541 to 600 amino residues) of mouse Pael receptor was expressed as a GST fusion protein in Escherichia coli. The anti-Pael receptor polyclonal antibody was prepared against a recombinant protein from which the GST portion had been removed. 14 μm-thick frozen sections of the mouse C57BL/6 brain tissue were allowed to react with anti-Pael receptor antibodies (1:200 dilution), anti-TH antibodies (Chemicon, 1:100), anti-NeuN antibodies (Chemicon, 1:200) or anti-CNPase antibodies (Sigma, 1:100). The primary antibody was stained with Alexa 488 or Alexa 546 (Molecular Probes)-labeled secondary antibody. The stained cells or sections were mounted using SlowFade (Molecular probes), and then observed under a confocal laser fluorescence microscope (Fluoview, Olympus).
Furthermore, to confirm the involvement of cell death induced by misfolded proteins in cell death resulting from overexpression of Pael receptors, intracellular distribution of Pael receptors in the presence or the absence of lactacystin was examined. […] Expression plasmids for Pael receptors were gene-transferred to SH-SY5Y cells, and then the cells were cultured in the presence (middle and lower panels) or the absence (upper panel) of lactacystin for 6 hours. […]

Pael receptor [3] = test: Pulse-chase experiment, turnover of 35S-labeled Pael receptor; assay type: cell-based, human; details: 10 μM lactacystin, relative to level at time 0
Method: Pael receptors having FLAG-tagged carboxyl termini (Pael receptor-FLAG) and expression plasmids for Parkin or control plasmids were gene-transferred to SH-SY5Y cells. 36 hours later, the cells were cultured for 1 hour in Dulbecco's modified eagle's medium (M/C-free DMEM) containing 5% fetal calf serum (FCS) but containing no methionine/cysteine under conditions involving the presence or the absence of 10 μM lactacystin. The cells were then labeled at 37° C. for 30 minutes by adding 200 μCi/ml ^35S-methionine/cysteine to the 5% FCS-containing M/C-free DMEM in the presence or the absence of 10 μM lactacystin. […] The metabolically labeled Pael receptor was quantified using Image Gauge software (Fujifilm). Next, to examine whether Parkin degrades the Pael receptor in the ubiquitin-proteasome system, the turnover rate of the Pael receptor was measured under conditions involving the presence or the absence of Parkin by the pulse-chase experiment (FIG. 9). […] Subsequently, ^35S-methionine/cysteine were added for labeling, and then the cells were chased for the time indicated in FIG. 9 in the presence (Lc +) or the absence (Lc −) of 10 μM lactacystin. ^35S-labeld Pael receptors were immunoprecipitated, detected by radioautography (FIG. 9 left), and then quantified by phosphor imaging (FIG. 9 right). […]

[4] = Pael receptor-over-expressing SH-SY5Y cells, 16 hours, lactacystin 20 μM, tunicamycin 5 μg/ml, 2-ME 2 mM
[5] = control SH-SY5Y cells, 16 hours, tunicamycin 5 μg/ml, 2-ME 2 mM

Q: For tunicamycin, which cells died (SH-SY5Y cells; [4]) is on record?
A: approximately 60%

Q: What about the cells died (SH-SY5Y cells; [5]) of the same molecule?
A: 40%

Q: What about the “Pael receptors in the insoluble fraction” value (Pael receptor [1]) of the same molecule?
A: increased with a high-molecular-weight shift

Q: What about the “expression of BiP (GRP78) and of endogenous Parkin in the soluble fraction” value (from here on “expression of BiP … in the soluble fraction”) (Pael receptor [1]) of the same molecule?
A: caused increases

Q: And the “intracellular distribution of Pael receptors” value (from here on “intracellular distribution”) (Pael receptor [2])?
A: the same

Q: How did the “Pael receptors remained after 180 minutes of chasing” value (Pael receptor [3]; SH-SY5Y cells over-expressing Parkin) turn out when CC(=O)N[C@@H](CSC(=O)[C@]1([C@@H](O)C(C)C)NC(=O)[C@H](C)[C@@H]1O)C(=O)O [lactacystin] was run?
A: 58%

Q: And the “Pael receptors remained after 180 minutes of chasing” value (Pael receptor [3]; control SH-SY5Y cells)?
A: 54%

Q: And the cells died (SH-SY5Y cells; human, 16 h, 20 μM)?
A: approximately 50%

Q: What about the “Pael receptors in the insoluble fraction” value (Pael receptor [1]) of the same molecule?
A: increased with a high-molecular-weight shift

Q: And the “expression of BiP … in the soluble fraction” value (Pael receptor [1])?
A: caused increases

Q: What about the “intracellular distribution” value (Pael receptor [2]) of the same molecule?
A: accumulated in the endoplasmic reticulum

Q: How did the cells died (SH-SY5Y cells; [4]) turn out when OCCS [2-ME, 2-mercaptoethanol] was run?
A: approximately 60%

Q: What about the cells died (SH-SY5Y cells; [5]) of the same molecule?
A: 40%

Q: What about the “Pael receptors in the insoluble fraction” value (Pael receptor [1]) of the same molecule?
A: increased with a high-molecular-weight shift

Q: What about the “expression of BiP … in the soluble fraction” value (Pael receptor [1]) of the same molecule?
A: caused increases

Q: And the “intracellular distribution” value (Pael receptor [2])?
A: the same
